Test results as given in the kinase profiling compilation of Christmann-Franck et al. (2016).

Tests used:
PIM2 (human) [1] = target: PIM2 (human) (UniProt Q9P1W9); test: SelectScreen, TR FRET
PIM1 (human) [2] = target: PIM1 (human) (UniProt P11309); test: SelectScreen, TR FRET
PLK3 (human) = PLK3 (human) (UniProt Q9H4B4); test: KINOMEscan competition binding; conditions: compound 10.0 µM
STK33 (human) = STK33 (human) (UniProt Q9BYT3); test: KINOMEscan competition binding; conditions: compound 10.0 µM
PLK1 (human) = PLK1 (human) (UniProt P53350); test: KINOMEscan competition binding; conditions: compound 10.0 µM
PLK1 (human), sequence (P53350 whole entry, looked up): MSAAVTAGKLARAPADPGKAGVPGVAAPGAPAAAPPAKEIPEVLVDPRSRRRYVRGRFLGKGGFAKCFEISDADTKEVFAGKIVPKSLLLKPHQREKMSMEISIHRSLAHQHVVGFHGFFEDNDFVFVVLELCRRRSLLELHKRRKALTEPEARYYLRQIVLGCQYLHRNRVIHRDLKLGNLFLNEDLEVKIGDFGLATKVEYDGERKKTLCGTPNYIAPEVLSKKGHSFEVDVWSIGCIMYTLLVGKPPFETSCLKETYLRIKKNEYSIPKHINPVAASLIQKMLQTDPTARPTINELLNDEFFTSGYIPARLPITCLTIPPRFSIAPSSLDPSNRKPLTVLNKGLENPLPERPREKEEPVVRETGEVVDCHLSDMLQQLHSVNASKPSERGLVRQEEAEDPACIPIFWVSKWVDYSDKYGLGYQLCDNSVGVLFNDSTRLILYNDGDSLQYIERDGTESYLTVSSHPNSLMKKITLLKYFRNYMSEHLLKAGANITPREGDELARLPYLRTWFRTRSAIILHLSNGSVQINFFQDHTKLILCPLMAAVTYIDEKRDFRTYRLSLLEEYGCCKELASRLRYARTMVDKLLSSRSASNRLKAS

PTK2 (human) = PTK2 (human) (UniProt Q05397); test: KINOMEscan competition binding; conditions: compound 10.0 µM
TTK (human) = TTK (human) (UniProt P33981); test: KINOMEscan competition binding; conditions: compound 10.0 µM
GAK (human) = GAK (human) (UniProt O14976); test: KINOMEscan competition binding; conditions: compound 10.0 µM
PLK4 (human) = PLK4 (human) (UniProt O00444); test: KINOMEscan competition binding; conditions: compound 10.0 µM
FLT3 (human) = FLT3 (human) (UniProt P36888); test: KINOMEscan competition binding; conditions: compound 10.0 µM
ULK2 (human) = ULK2 (human) (UniProt Q8IYT8); test: KINOMEscan competition binding; conditions: compound 10.0 µM
MAPK7 (human) = MAPK7 (human) (UniProt Q13164); test: KINOMEscan competition binding; conditions: compound 10.0 µM
MYLK (human) = MYLK (human) (UniProt Q15746); test: KINOMEscan competition binding; conditions: compound 10.0 µM
MYLK (human), sequence (Q15746 whole entry, looked up): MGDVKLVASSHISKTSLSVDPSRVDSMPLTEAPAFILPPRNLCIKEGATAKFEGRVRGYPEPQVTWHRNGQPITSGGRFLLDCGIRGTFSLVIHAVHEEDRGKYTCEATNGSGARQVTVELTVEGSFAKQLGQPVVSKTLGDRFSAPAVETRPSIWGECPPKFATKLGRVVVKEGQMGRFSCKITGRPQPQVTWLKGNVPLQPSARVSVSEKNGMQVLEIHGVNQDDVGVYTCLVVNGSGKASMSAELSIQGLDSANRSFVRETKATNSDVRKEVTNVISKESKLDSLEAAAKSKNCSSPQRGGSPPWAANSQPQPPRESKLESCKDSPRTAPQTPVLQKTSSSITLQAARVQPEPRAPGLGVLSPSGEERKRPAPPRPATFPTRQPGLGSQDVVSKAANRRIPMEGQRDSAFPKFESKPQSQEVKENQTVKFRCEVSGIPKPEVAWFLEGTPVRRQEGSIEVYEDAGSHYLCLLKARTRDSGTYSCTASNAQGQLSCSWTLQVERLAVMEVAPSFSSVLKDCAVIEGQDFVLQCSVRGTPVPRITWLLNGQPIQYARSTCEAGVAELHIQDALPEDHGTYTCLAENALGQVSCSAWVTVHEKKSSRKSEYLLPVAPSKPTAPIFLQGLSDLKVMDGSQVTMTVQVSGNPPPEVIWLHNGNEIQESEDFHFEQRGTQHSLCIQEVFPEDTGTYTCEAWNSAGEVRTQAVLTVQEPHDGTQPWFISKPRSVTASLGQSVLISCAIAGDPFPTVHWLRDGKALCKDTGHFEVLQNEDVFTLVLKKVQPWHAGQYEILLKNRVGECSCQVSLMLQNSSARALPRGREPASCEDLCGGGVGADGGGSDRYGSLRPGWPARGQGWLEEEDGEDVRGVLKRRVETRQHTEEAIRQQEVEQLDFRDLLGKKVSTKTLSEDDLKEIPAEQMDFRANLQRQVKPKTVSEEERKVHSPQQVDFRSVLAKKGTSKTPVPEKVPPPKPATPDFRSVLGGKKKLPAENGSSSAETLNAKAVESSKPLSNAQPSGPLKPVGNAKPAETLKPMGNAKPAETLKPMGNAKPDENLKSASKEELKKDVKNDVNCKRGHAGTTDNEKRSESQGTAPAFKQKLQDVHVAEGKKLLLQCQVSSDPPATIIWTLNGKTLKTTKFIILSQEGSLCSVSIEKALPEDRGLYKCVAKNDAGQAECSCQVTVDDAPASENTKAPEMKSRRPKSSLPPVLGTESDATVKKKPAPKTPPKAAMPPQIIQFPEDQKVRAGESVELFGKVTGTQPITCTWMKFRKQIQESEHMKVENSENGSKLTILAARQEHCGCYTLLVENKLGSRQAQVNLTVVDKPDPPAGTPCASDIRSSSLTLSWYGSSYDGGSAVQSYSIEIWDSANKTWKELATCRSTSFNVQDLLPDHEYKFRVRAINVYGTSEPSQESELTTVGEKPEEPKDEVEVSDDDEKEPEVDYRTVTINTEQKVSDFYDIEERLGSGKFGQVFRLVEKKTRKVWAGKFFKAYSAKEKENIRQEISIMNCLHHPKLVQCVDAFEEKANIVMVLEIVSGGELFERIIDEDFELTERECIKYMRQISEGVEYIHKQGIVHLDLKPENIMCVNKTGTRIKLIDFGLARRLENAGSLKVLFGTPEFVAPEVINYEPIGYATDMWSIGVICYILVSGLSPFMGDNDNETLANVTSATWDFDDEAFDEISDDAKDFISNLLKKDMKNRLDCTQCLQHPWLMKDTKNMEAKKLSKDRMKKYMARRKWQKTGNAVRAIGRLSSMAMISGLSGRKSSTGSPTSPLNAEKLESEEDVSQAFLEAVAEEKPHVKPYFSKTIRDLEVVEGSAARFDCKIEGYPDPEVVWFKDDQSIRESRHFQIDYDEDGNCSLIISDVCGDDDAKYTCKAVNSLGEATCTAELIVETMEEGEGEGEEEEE

PIM2 (human) [3] = target: PIM2 (human) (UniProt Q9P1W9); test: KINOMEscan competition binding; conditions: compound 10.0 µM
HIPK1 (human) = HIPK1 (human) (UniProt Q86Z02); test: KINOMEscan competition binding; conditions: compound 10.0 µM
HIPK1 (human), sequence (Q86Z02 whole entry, looked up): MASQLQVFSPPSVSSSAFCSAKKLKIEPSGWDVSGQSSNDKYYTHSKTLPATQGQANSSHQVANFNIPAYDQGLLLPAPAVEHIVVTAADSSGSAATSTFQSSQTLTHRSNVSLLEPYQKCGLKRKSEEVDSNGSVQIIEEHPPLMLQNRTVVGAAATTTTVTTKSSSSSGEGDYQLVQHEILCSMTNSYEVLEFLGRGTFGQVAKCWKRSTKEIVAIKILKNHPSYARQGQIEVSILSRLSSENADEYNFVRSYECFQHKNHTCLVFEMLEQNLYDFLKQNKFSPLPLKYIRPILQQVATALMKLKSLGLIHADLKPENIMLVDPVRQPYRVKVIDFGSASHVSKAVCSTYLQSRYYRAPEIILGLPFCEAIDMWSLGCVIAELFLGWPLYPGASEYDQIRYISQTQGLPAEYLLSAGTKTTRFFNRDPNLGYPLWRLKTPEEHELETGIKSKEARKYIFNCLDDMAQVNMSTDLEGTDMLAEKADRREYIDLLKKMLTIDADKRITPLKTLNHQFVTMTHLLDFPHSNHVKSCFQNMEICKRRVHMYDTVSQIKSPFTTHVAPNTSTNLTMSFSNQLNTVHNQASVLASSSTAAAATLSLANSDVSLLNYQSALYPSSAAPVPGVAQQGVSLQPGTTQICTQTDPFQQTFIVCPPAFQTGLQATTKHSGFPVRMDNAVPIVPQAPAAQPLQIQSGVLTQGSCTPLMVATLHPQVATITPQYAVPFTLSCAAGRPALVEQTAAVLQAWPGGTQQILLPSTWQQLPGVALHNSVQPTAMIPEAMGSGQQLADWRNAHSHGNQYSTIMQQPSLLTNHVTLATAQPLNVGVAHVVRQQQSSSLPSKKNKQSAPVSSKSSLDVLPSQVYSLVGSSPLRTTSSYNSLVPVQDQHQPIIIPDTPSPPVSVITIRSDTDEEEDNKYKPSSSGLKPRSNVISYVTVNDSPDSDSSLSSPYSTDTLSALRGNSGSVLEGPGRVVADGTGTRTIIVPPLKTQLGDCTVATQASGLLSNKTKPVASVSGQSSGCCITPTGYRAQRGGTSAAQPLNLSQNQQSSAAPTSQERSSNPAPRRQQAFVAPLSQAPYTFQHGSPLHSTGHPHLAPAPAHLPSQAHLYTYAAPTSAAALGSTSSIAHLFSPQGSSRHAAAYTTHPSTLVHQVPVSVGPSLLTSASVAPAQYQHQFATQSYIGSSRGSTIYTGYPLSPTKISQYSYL

PIM3 (human) = PIM3 (human) (UniProt Q86V86); test: KINOMEscan competition binding; conditions: compound 10.0 µM
PIK3CG (human) = PIK3CG (human) (UniProt P48736); test: KINOMEscan competition binding; conditions: compound 10.0 µM
STK17A (human) = STK17A (human) (UniProt Q9UEE5); test: KINOMEscan competition binding; conditions: compound 10.0 µM
[4] = target: TYK2 JH2 pseudokinase (human) (UniProt P29597); test: KINOMEscan competition binding; conditions: compound 10.0 µM
PIM1 (human) [5] = target: PIM1 (human) (UniProt P11309); test: KINOMEscan competition binding; conditions: compound 10.0 µM
DAPK1 (human) = DAPK1 (human) (UniProt P53355); test: KINOMEscan competition binding; conditions: compound 10.0 µM
CSNK2A2 (human) = CSNK2A2 (human) (UniProt P19784); test: KINOMEscan competition binding; conditions: compound 10.0 µM
STK17B (human) = STK17B (human) (UniProt O94768); test: KINOMEscan competition binding; conditions: compound 10.0 µM
STK17B (human), sequence (O94768 whole entry, looked up): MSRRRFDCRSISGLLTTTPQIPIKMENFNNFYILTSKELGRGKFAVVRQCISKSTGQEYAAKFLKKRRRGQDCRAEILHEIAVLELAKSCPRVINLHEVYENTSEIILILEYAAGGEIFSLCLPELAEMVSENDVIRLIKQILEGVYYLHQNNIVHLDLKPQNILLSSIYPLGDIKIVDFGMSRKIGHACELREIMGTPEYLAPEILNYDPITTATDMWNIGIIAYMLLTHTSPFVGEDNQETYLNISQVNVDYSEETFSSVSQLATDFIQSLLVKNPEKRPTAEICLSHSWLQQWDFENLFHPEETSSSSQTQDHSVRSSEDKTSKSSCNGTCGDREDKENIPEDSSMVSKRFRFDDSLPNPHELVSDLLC

TGFBR2 (human) = TGFBR2 (human) (UniProt P37173); test: KINOMEscan competition binding; conditions: compound 10.0 µM
MAPK15 (human) = MAPK15 (human) (UniProt Q8TD08); test: KINOMEscan competition binding; conditions: compound 10.0 µM
DAPK2 (human) = DAPK2 (human) (UniProt Q9UIK4); test: KINOMEscan competition binding; conditions: compound 10.0 µM
MAP2K3 (human) = MAP2K3 (human) (UniProt P46734); test: KINOMEscan competition binding; conditions: compound 10.0 µM
CLK1 (human) = CLK1 (human) (UniProt P49759); test: KINOMEscan competition binding; conditions: compound 10.0 µM
TAOK1 (human) = TAOK1 (human) (UniProt Q7L7X3); test: KINOMEscan competition binding; conditions: compound 10.0 µM
ACVR2B (human) = ACVR2B (human) (UniProt Q13705); test: KINOMEscan competition binding; conditions: compound 10.0 µM
CLK4 (human) = CLK4 (human) (UniProt Q9HAZ1); test: KINOMEscan competition binding; conditions: compound 10.0 µM
CDK16 (human) = CDK16 (human) (UniProt Q00536); test: KINOMEscan competition binding; conditions: compound 10.0 µM
GSK3A (human) = GSK3A (human) (UniProt P49840); test: KINOMEscan competition binding; conditions: compound 10.0 µM

PIM2 (human), sequence (Q9P1W9 whole entry, looked up): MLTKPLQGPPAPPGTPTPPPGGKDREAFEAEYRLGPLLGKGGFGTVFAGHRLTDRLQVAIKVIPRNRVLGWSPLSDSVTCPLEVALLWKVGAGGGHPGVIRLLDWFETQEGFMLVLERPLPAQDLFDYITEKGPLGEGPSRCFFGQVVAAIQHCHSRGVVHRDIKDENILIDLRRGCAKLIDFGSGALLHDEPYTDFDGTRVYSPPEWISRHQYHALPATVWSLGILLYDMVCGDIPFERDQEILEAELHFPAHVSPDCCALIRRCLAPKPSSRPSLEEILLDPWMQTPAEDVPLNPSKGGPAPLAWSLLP
PIM1 (human), sequence (P11309 whole entry, looked up): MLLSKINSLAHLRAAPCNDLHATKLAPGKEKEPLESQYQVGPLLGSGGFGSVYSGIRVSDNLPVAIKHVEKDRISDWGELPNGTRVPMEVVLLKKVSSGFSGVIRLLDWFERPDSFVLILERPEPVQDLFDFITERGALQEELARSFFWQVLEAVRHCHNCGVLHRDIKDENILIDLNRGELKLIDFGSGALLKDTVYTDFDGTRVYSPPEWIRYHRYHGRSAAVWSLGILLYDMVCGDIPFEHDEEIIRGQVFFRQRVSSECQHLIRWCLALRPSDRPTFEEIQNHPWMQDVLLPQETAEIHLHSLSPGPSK

Molecule N=C1NC(=O)/C(=C/c2ccc(-c3cccc4ccccc34)o2)S1 has an IC50 (PIM2 (human) [1]) of 1200 nM and an IC50 (PIM1 (human) [2]) of 2170 nM.
O=C1NC(=S)S/C1=C\c1ccc(-c2csc3ccccc23)o1 was tested, and the IC50 (PIM2 (human) [1]) was 375 nM and the IC50 (PIM1 (human) [2]) was 722 nM.
For CCOc1cc(N2CCC(O)CC2)ccc1Nc1ncc2c(n1)N(C1CCCC1)CCC(=O)N2C, the kinase still bound, per cent of control (PLK3 (human)) was 15%, the kinase still bound, per cent of control (STK33 (human)) was 32% and the kinase still bound, per cent of control (PLK1 (human)) was 4.3%. The kinase still bound, per cent of control (PTK2 (human)) was 24%, the kinase still bound, per cent of control (TTK (human)) was 3.2% and the kinase still bound, per cent of control (GAK (human)) was 2%. The kinase still bound, per cent of control (PLK4 (human)) was 27% and the kinase still bound, per cent of control (FLT3 (human)) was 0%.
With NS(=O)(=O)c1ccc(-c2ccc(C=C3C(=O)c4ccccc4C3=O)o2)cc1 the kinase still bound, per cent of control (ULK2 (human)) was 22%.
Molecule CCN1CCN(Cc2cc(NC(=O)c3cccc4cc(-c5ccc(/C=C6\SC(=N)NC6=O)o5)ccc34)cc(C(F)(F)F)c2)CC1 has an IC50 (PIM2 (human) [1]) of 814 nM and an IC50 (PIM1 (human) [2]) of 774 nM.
In the case of CC(C)Oc1cc(C(=O)N2CCC(N3CCN(C)CC3)CC2)ccc1Nc1ncc2c(n1)N(C1CCCC1)[C@@H]1CCC[C@@H]1C(=O)N2C, the kinase still bound, per cent of control (PLK1 (human)) is reported as 24%, the kinase still bound, per cent of control (MAPK7 (human)) is reported as 4.8% and the kinase still bound, per cent of control (MYLK (human)) is reported as 18%.
O=C1NC(=O)/C(=C/c2ccc(-c3ccc(C(=O)Nc4ccc(N5CCNCC5)cc4)cc3)o2)S1 gave a kinase still bound, per cent of control (PIM2 (human) [3]) of 0.75%, a kinase still bound, per cent of control (HIPK1 (human)) of 1.1% and a kinase still bound, per cent of control (PIM3 (human)) of 1.2%. The kinase still bound, per cent of control (PIK3CG (human)) was 17%, the kinase still bound, per cent of control (MYLK (human)) was 27% and the kinase still bound, per cent of control (GAK (human)) was 26%. The kinase still bound, per cent of control (STK17A (human)) was 20%, the kinase still bound, per cent of control [4] was 14% and the kinase still bound, per cent of control (PIM1 (human) [5]) was 1.4%. It also gave a kinase still bound, per cent of control (DAPK1 (human)) of 34%, a kinase still bound, per cent of control (CSNK2A2 (human)) of 21% and a kinase still bound, per cent of control (STK17B (human)) of 0.65%. It also gave an IC50 (PIM2 (human) [1]) of 133 nM and an IC50 (PIM1 (human) [2]) of 246 nM.
Molecule N=C1NC(=O)/C(=C/c2ccc(-c3ccc(Cl)cc3)o2)S1 has a kinase still bound, per cent of control (TGFBR2 (human)) of 10%, a kinase still bound, per cent of control (PIM2 (human) [3]) of 1.4% and a kinase still bound, per cent of control (MAPK15 (human)) of 1.4%. The kinase still bound, per cent of control (HIPK1 (human)) was 0.2%, the kinase still bound, per cent of control (DAPK2 (human)) was 33% and the kinase still bound, per cent of control (MAP2K3 (human)) was 5.6%. For the same molecule, the kinase still bound, per cent of control (PIM3 (human)) was 3.9%, the kinase still bound, per cent of control (CLK1 (human)) was 34% and the kinase still bound, per cent of control (TAOK1 (human)) was 11%. The kinase still bound, per cent of control (ACVR2B (human)) was 25%, the kinase still bound, per cent of control (CLK4 (human)) was 30% and the kinase still bound, per cent of control (STK17A (human)) was 1.8%. The kinase still bound, per cent of control (PIM1 (human) [5]) was 9.2%, the kinase still bound, per cent of control (CDK16 (human)) was 14% and the kinase still bound, per cent of control (GSK3A (human)) was 7.8%. The kinase still bound, per cent of control (STK17B (human)) was 2.1%, the IC50 (PIM2 (human) [1]) was 7830 nM and the IC50 (PIM1 (human) [2]) was 895 nM.
